In publication PMC9207296, “Photoacoustic imaging reveals mechanisms of rapid-acting insulin formulations dynamics at the injection site” (Molecular Metabolism, 2022):

How the values were obtained:
[1] = OR-PAM quantification and compartmental kinetic modelling of injection-site absorption in mouse ear; format: in vivo; settings: sulfo-cy7.5 dye without lispro, n = 3, result in words
Protocol: We used 34 gauge needles (207434, Hamilton) with microliter syringes to inject insulin volumes from 0.06 μL to 0.10 μL in the mouse ear. To perform the injection, the syringes were fitted onto a syringe dispenser (PB600, Hamilton), which enabled rapid and controlled injection. The needle was inserted in the mouse ear at an oblique angle (≤45°) and then the desired volume of the dye-labeled insulin lispro formulation was injected using the syringe dispenser. To perform 0.06 μL injections, a 1 μL syringe (80100, Hamilton) was used through which a minimum of 0.02 μL of liquid could be dispensed. To inject 0.1 μL volume, a 5 μL (7634-01, Hamilton) syringe was used. To perform 0.06 μL injection, the 1 μL syringe was fitted with a glass coupler (55752-01, Hamilton) and a luer adaptor (55753-01, Hamilton) to connect to the 34-gauge needle. The 5 μL syringe could be directly connected to the needle.
Mouse experiments were approved as per the IACUC regulations at Caltech. Hsd:Athymic Nude-Fox1^nu mice aged 6–10 weeks (Envigo) were used in all the photoacoustic experiments. The mouse body temperature was maintained at 37 °C during imaging. […]
Since the time required for taking each image is around 220 s, we consider the mid-point of time at which the imaging was started and ended as the imaging time-point. […] All the p values were calculated using unpaired two-sample t-tests. […]

[2] = Photobleaching test of dye-labeled lispro in expired mouse ear (OR-PAM); format: physicochemical; settings: 400 μM in Humalog formulation in expired mouse ear; 21 imaging sessions over 3 hours; 780 nm
Protocol: Before performing live animal experiments, we injected the dye-labeled lispro formulation in the ear of an expired mouse to study the progression of photoacoustic signals to assess photobleaching.
[picture] Figure S1: Photobleaching test of Cy7.5 dye-labeled lispro (400 μM) in Humalog formulation injected in a dead mouse ear. Over the course of 3 hours, 21 imaging sessions were performed and no decrease of photoacoustic signals were found. Scale bar = 500 μm.

Substance	injection-site absorption of dye alone, Lyumjev versus Humalog excipient formulation [1]	photostability (photoacoustic signal) [2]
sulfo-cyanine7.5 [sulfo-cy7.5 dye]	absorbed at a faster rate in the Lyumjev formulation	
sulfo-cy7.5 insulin lispro: insulin lispro acylated at the B-chain lysine B28 epsilon amino group with sulfo-cyanine7.5 NHS ester		no decrease in photoacoustic signals after 21 imaging sessions
